Our source for the MIC values is ChEMBL document CHEMBL1155520, “Novel 8a-aza-8a-homoerythromycin--4''-(3-substituted-amino)propionates with broad spectrum antibacterial activity” (2010).

What all share (format): functional
Test [1] concerns Streptococcus pneumoniae. Description: Antimicrobial activity against macrolide-sensitive Streptococcus pneumoniae SPO 30.
Test [2] has as its system Streptococcus pneumoniae. The experiment in a line: Antimicrobial activity against macrolide-resistant Streptococcus pneumoniae Ci137.
Test [3] relates to Streptococcus pyogenes. The experiment in a line: Antimicrobial activity against macrolide-sensitive Streptococcus pyogenes 3665.
In test [4] the test system is Streptococcus pyogenes. The experiment in a line: Antimicrobial activity against inducible macrolide, lincosamide, streptogramin-resistant Streptococcus pyogenes Finland 11.
Another test relates to Staphylococcus aureus. Description: Antimicrobial activity against macrolide-sensitive Staphylococcus aureus ATCC 13709.
A further test concerns Haemophilus influenzae. Description: Antimicrobial activity against Haemophilus influenzae ATCC 49247.
Test [5] has as its system Streptococcus pneumoniae. Description: Antimicrobial activity against inducible macrolide and constitutive lincosamide, streptogramin-resistant Streptococcus pneumoniae 4636.

Structures are written as SMILES. Values after ≈ are worked out from the molar mass of the structure shown.

`CC[C@H]1OC(=O)[C@H](C)[C@@H](O[C@H]2C[C@@](C)(OC)[C@@H](OC(=O)CCNCC(=O)Nc3ccc([N+](=O)[O-])cc3)[C@H](C)O2)[C@H](C)[C@@H](O[C@@H]2O[C@H](C)C[C@H](N(C)C)[C@H]2O)[C@](C)(O)C[C@@H](C)NC(=O)[C@H](C)[C@@H](O)[C@]1(C)O`: the MIC in the test on Streptococcus pneumoniae [1] is < 0.13 µg/mL; in the test with Streptococcus pneumoniae [2], 4 µg/mL (≈ 4.01 µM); with Streptococcus pyogenes [3], < 0.13 µg/mL; in the test with Streptococcus pyogenes [4], 4 µg/mL (≈ 4.01 µM); with Staphylococcus aureus it was 2 µg/mL (≈ 2 µM); against Haemophilus influenzae it was 8 µg/mL (≈ 8.01 µM). Moreover, in the test on Streptococcus pneumoniae [5], the MIC came to 32 µg/mL (≈ 32.1 µM).
Take `CC[C@H]1OC(=O)[C@H](C)[C@@H](O[C@H]2C[C@@](C)(OC)[C@@H](OC(=O)CCN3CCN(C(=O)c4ccco4)CC3)[C@H](C)O2)[C@H](C)[C@@H](O[C@@H]2O[C@H](C)C[C@H](N(C)C)[C@H]2O)[C@](C)(O)C[C@@H](C)NC(=O)[C@H](C)[C@@H](O)[C@]1(C)O`: the MIC in the test with Streptococcus pneumoniae [1] was < 0.13 µg/mL; in the test on Streptococcus pneumoniae [2] it was 2 µg/mL (≈ 2.03 µM); against Streptococcus pyogenes [3], < 0.13 µg/mL; in the test with Streptococcus pyogenes [4] it was 8 µg/mL (≈ 8.14 µM); in the test on Staphylococcus aureus, 4 µg/mL (≈ 4.07 µM); in the test on Haemophilus influenzae, 16 µg/mL (≈ 16.3 µM). For the same molecule, the MIC against Streptococcus pneumoniae [5] was > 64 µg/mL.
Regarding `CC[C@H]1OC(=O)[C@H](C)[C@@H](O[C@H]2C[C@@](C)(OC)[C@@H](OC(=O)CCNCC(=O)Nc3ccc4ccccc4c3)[C@H](C)O2)[C@H](C)[C@@H](O[C@@H]2O[C@H](C)C[C@H](N(C)C)[C@H]2O)[C@](C)(O)C[C@@H](C)NC(=O)[C@H](C)[C@@H](O)[C@]1(C)O`, the MIC in the test on Streptococcus pneumoniae [1] is < 0.13 µg/mL; in the test with Streptococcus pneumoniae [2], 2 µg/mL (≈ 1.99 µM); against Streptococcus pyogenes [3], < 0.13 µg/mL; in the test with Streptococcus pyogenes [4], 8 µg/mL (≈ 7.97 µM); with Staphylococcus aureus it was 4 µg/mL (≈ 3.99 µM); against Haemophilus influenzae, 4 µg/mL (≈ 3.99 µM). The MIC against Streptococcus pneumoniae [5] worked out at 32 µg/mL (≈ 31.9 µM).
`CC[C@H]1OC(=O)[C@H](C)[C@@H](O[C@H]2C[C@@](C)(OC)[C@@H](OC(=O)CCN[C@@H](C)c3ccc([N+](=O)[O-])cc3)[C@H](C)O2)[C@H](C)[C@@H](O[C@@H]2O[C@H](C)C[C@H](N(C)C)[C@H]2O)[C@](C)(O)C[C@@H](C)NC(=O)[C@H](C)[C@@H](O)[C@]1(C)O`: the MIC against Streptococcus pneumoniae [1] is < 0.13 µg/mL; in the test with Streptococcus pneumoniae [2] it was 4 µg/mL (≈ 4.13 µM); against Streptococcus pyogenes [3], < 0.13 µg/mL; in the test on Streptococcus pyogenes [4] it was 4 µg/mL (≈ 4.13 µM); against Staphylococcus aureus, 4 µg/mL (≈ 4.13 µM); with Haemophilus influenzae, 8 µg/mL (≈ 8.25 µM). The molecule also showed an MIC against Streptococcus pneumoniae [5] of 16 µg/mL (≈ 16.5 µM).
Consider `CC[C@H]1OC(=O)[C@H](C)[C@@H](O[C@H]2C[C@@](C)(OC)[C@@H](OC(=O)CCN[C@H](C)c3ccc([N+](=O)[O-])cc3)[C@H](C)O2)[C@H](C)[C@@H](O[C@@H]2O[C@H](C)C[C@H](N(C)C)[C@H]2O)[C@](C)(O)C[C@@H](C)NC(=O)[C@H](C)[C@@H](O)[C@]1(C)O`, for which the MIC was < 0.13 µg/mL against Streptococcus pneumoniae [1]; 4 µg/mL (≈ 4.13 µM) against Streptococcus pneumoniae [2]; < 0.13 µg/mL in the test on Streptococcus pyogenes [3]; 8 µg/mL (≈ 8.25 µM) against Streptococcus pyogenes [4]; 4 µg/mL (≈ 4.13 µM) with Staphylococcus aureus; 4 µg/mL (≈ 4.13 µM) in the test with Haemophilus influenzae. In the test on Streptococcus pneumoniae [5], the MIC was found to be 32 µg/mL (≈ 33 µM).
Take `CC[C@H]1OC(=O)[C@H](C)[C@@H](O[C@H]2C[C@@](C)(OC)[C@@H](OC(=O)CCN[C@@H](C)C(=O)Nc3ccc4ccccc4c3)[C@H](C)O2)[C@H](C)[C@@H](O[C@@H]2O[C@H](C)C[C@H](N(C)C)[C@H]2O)[C@](C)(O)C[C@@H](C)NC(=O)[C@H](C)[C@@H](O)[C@]1(C)O`: the MIC against Streptococcus pneumoniae [1] was < 0.13 µg/mL; in the test with Streptococcus pneumoniae [2], 0.5 µg/mL (≈ 0.492 µM); with Streptococcus pyogenes [3] it was < 0.13 µg/mL; against Streptococcus pyogenes [4], 8 µg/mL (≈ 7.86 µM); against Staphylococcus aureus, 2 µg/mL (≈ 1.97 µM); against Haemophilus influenzae it was 2 µg/mL (≈ 1.97 µM). In the test with Streptococcus pneumoniae [5], this molecule returned an MIC of 32 µg/mL (≈ 31.5 µM).
`CC[C@H]1OC(=O)[C@H](C)[C@@H](O[C@H]2C[C@@](C)(OC)[C@@H](OC(=O)CCN[C@@H](C)C(=O)Nc3ccc([N+](=O)[O-])cc3)[C@H](C)O2)[C@H](C)[C@@H](O[C@@H]2O[C@H](C)C[C@H](N(C)C)[C@H]2O)[C@](C)(O)C[C@@H](C)NC(=O)[C@H](C)[C@@H](O)[C@]1(C)O`: the MIC is < 0.13 µg/mL in the test on Streptococcus pneumoniae [1]; 2 µg/mL (≈ 1.98 µM) in the test with Streptococcus pneumoniae [2]; < 0.13 µg/mL in the test on Streptococcus pyogenes [3]; 4 µg/mL (≈ 3.95 µM) in the test with Streptococcus pyogenes [4]; 4 µg/mL (≈ 3.95 µM) in the test on Staphylococcus aureus; 4 µg/mL (≈ 3.95 µM) against Haemophilus influenzae. Moreover, the MIC in the test on Streptococcus pneumoniae [5] was 32 µg/mL (≈ 31.6 µM).
On to `CC[C@H]1OC(=O)[C@H](C)[C@@H](O[C@H]2C[C@@](C)(OC)[C@@H](OC(=O)CCN3CCN(C(=O)c4ccco4)CC3)[C@H](C)O2)[C@H](C)[C@@H](O[C@@H]2O[C@H](C)C[C@H](N(C)C)[C@H]2O)[C@](C)(OC)C[C@@H](C)NC(=O)[C@H](C)[C@@H](O)[C@]1(C)O`, for which the MIC against Streptococcus pneumoniae [1] was < 0.13 µg/mL; with Streptococcus pneumoniae [2] it was 2 µg/mL (≈ 2.01 µM); against Streptococcus pyogenes [3], < 0.13 µg/mL; in the test on Streptococcus pyogenes [4] it was 16 µg/mL (≈ 16 µM); in the test on Staphylococcus aureus it was 2 µg/mL (≈ 2.01 µM); in the test on Haemophilus influenzae, 4 µg/mL (≈ 4.01 µM). The molecule further came in with an MIC in the test with Streptococcus pneumoniae [5] of 32 µg/mL (≈ 32.1 µM).
Take `CC[C@H]1OC(=O)[C@H](C)[C@@H](O[C@H]2C[C@@](C)(OC)[C@@H](OC(=O)CCNCC(=O)Nc3ccc4ccccc4c3)[C@H](C)O2)[C@H](C)[C@@H](O[C@@H]2O[C@H](C)C[C@H](N(C)C)[C@H]2O)[C@](C)(OC)C[C@@H](C)NC(=O)[C@H](C)[C@@H](O)[C@]1(C)O`: the MIC against Streptococcus pneumoniae [1] was < 0.13 µg/mL; in the test with Streptococcus pneumoniae [2] it was 2 µg/mL (≈ 1.97 µM); in the test with Streptococcus pyogenes [3] it was < 0.13 µg/mL; in the test with Streptococcus pyogenes [4], 16 µg/mL (≈ 15.7 µM); against Staphylococcus aureus it was 1 µg/mL (≈ 0.983 µM); with Haemophilus influenzae it was 2 µg/mL (≈ 1.97 µM). Further, the MIC with Streptococcus pneumoniae [5] came to 16 µg/mL (≈ 15.7 µM).
On to `CC[C@H]1OC(=O)[C@H](C)[C@@H](O[C@H]2C[C@@](C)(OC)[C@@H](OC(=O)CCNCC(=O)Nc3ccc([N+](=O)[O-])cc3)[C@H](C)O2)[C@H](C)[C@@H](O[C@@H]2O[C@H](C)C[C@H](N(C)C)[C@H]2O)[C@](C)(OC)C[C@@H](C)NC(=O)[C@H](C)[C@@H](O)[C@]1(C)O`, for which the MIC in the test on Streptococcus pneumoniae [1] is < 0.13 µg/mL; against Streptococcus pneumoniae [2], 2 µg/mL (≈ 1.98 µM); in the test with Streptococcus pyogenes [3], < 0.13 µg/mL; against Streptococcus pyogenes [4], 4 µg/mL (≈ 3.95 µM); against Staphylococcus aureus, 1 µg/mL (≈ 0.988 µM); in the test with Haemophilus influenzae, 2 µg/mL (≈ 1.98 µM). Also, in the test on Streptococcus pneumoniae [5], the MIC amounted to 16 µg/mL (≈ 15.8 µM).
In the case of `CC[C@H]1OC(=O)[C@H](C)[C@@H](O[C@H]2C[C@@](C)(OC)[C@@H](OC(=O)CCN[C@@H](C)c3ccc([N+](=O)[O-])cc3)[C@H](C)O2)[C@H](C)[C@@H](O[C@@H]2O[C@H](C)C[C@H](N(C)C)[C@H]2O)[C@](C)(OC)C[C@@H](C)NC(=O)[C@H](C)[C@@H](O)[C@]1(C)O`, the MIC is < 0.13 µg/mL against Streptococcus pneumoniae [1]; 2 µg/mL (≈ 2.03 µM) in the test on Streptococcus pneumoniae [2]; < 0.13 µg/mL with Streptococcus pyogenes [3]; 4 µg/mL (≈ 4.07 µM) against Streptococcus pyogenes [4]; 2 µg/mL (≈ 2.03 µM) against Staphylococcus aureus; 32 µg/mL (≈ 32.5 µM) against Haemophilus influenzae. Moreover, the MIC in the test with Streptococcus pneumoniae [5] is > 32 µg/mL.
`CC[C@H]1OC(=O)[C@H](C)[C@@H](O[C@H]2C[C@@](C)(OC)[C@@H](OC(=O)CCNCCNc3cccc4ccccc34)[C@H](C)O2)[C@H](C)[C@@H](O[C@@H]2O[C@H](C)C[C@H](N(C)C)[C@H]2O)[C@](C)(OC)C[C@@H](C)NC(=O)[C@H](C)[C@@H](O)[C@]1(C)O`: the MIC is < 0.13 µg/mL against Streptococcus pneumoniae [1]; 2 µg/mL (≈ 1.99 µM) in the test with Streptococcus pneumoniae [2]; < 0.13 µg/mL against Streptococcus pyogenes [3]; 4 µg/mL (≈ 3.99 µM) with Streptococcus pyogenes [4]; 1 µg/mL (≈ 0.997 µM) in the test with Staphylococcus aureus; > 32 µg/mL with Streptococcus pneumoniae [5].
